Consider 52 compounds from patent US20230014907A1, “INHIBITORS OF APOL1 AND METHODS OF USING SAME” (Vertex Pharmaceuticals Incorporated, priority 2020, published 2023).

The assay has as its target T1, G1 APOL1 (Homo sapiens, UniProt O14791, I384M/S342G).
T1 construct: expressed in transfected cells
T1 sequence (O14791 28-398 S342G/I384M): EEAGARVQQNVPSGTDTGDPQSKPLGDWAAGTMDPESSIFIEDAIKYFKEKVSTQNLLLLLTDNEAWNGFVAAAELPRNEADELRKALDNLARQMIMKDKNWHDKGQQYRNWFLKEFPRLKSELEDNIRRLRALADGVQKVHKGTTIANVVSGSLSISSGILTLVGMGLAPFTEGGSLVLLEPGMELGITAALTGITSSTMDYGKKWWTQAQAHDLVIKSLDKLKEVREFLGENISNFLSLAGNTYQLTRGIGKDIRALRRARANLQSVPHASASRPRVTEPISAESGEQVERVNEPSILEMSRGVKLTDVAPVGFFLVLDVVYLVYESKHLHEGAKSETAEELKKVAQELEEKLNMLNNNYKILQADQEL
The assay is described as follows: Acute APOL1 Thallium Assay with Inducible Stable Clones of HEK 293 Cells. Format: cell-based. As to conditions: HEK 293 inducible stable clones, G1 APOL1; read-out: Thallium Assay (IC50). Summed up:
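HEK293 T-Rex cells with a stable tetracycline-inducible G1 APOL1 construct (clone DC3.25) were induced with tetracycline at plating, 26000 cells per well, then incubated at 37° C. They were loaded with an AM-ester thallium-sensitive dye and stimulated with Tl+. The fluorescence rise measured Tl+ influx through APOL1 pores.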

For `O=C(NCCc1c(-c2ccc(F)cc2)[nH]c2c(F)cc(F)cc12)NC(CO)CF` (stereo not shown) [Compound 259, 1-[2-[5,7-difluoro-2-(4-fluorophenyl)-1H-indol-3-yl]ethyl]-3-[1-(fluoromethyl)-2-hydroxy-ethyl]urea], the IC50 was 250 to 1000 nM.
Turning to `CC(O)(CO)CNC(=O)CCCc1c(-c2ccc(F)cc2)[nH]c2c(F)cc(F)cc12` (stereo not shown) [Compound 250], the IC50 is above 1000 nM.
The value for `O=C1C[C@H](NC(=O)CCCc2c(-c3ccc(F)cc3)[nH]c3c(F)cc(F)cc23)C(=O)N1` [Compound 245] was above 1000 nM.
As to `C[C@H](O)C(=O)NCCc1c(-c2ccc(F)cc2)[nH]c2c(F)cc(F)cc12` [Compound 362], the 50% inhibitory concentration (IC50) was 250 to 1000 nM.
To `O=C(NCCO)OCCc1c(-c2ccc(F)cc2)[nH]c2c(F)cc(F)cc12` [Compound 443] belongs below 250 nM; to `Cn1nccc1CNC(=O)CCCc1c(-c2ccc(F)cc2)[nH]c2c(F)cc(F)cc12` [Compound 255], above 1000 nM.
Consider `O=C(CCc1c(-c2ccc(F)cc2)[nH]c2c(F)cc(Cl)cc12)N[C@@H](CO)C(F)(F)F` [Compound 207], for which the IC50 is below 250 nM.
The value for `Cc1cc(F)c2[nH]c(-c3ccc(F)cc3)c(CCC(=O)NC(C)(CO)CO)c2c1` [Compound 225] was above 1000 nM; that for `Cc1ccn(CC(=O)NCCc2c(-c3ccc(F)cc3)[nH]c3c(F)cc(F)cc23)n1` [Compound 378] was above 1000 nM.
The value for `NC(=O)[C@H](CO)NC(=O)CCc1c(-c2ccc(F)cc2)[nH]c2c(F)cc(Cl)cc12` [Compound 206] was above 1000 nM; that for `O=C(NCCc1c(-c2ccc(F)cc2)[nH]c2c(F)cc(F)cc12)NCC1CCCO1` (stereo not shown) [Compound 297] was above 1000 nM.
As for `O=C1NC[C@@H](O)[C@@H]1NCCc1c(-c2ccc(F)cc2)[nH]c2c(F)cc(F)cc12` [Compound 427, (3S,4R)-3-((2-(5,7-difluoro-2-(4-fluorophenyl)-1H-indol-3-yl)ethyl)amino)-4-hydroxypyrrolidin-2-one], the IC50 is above 1000 nM.
To `CN(CCO)C(=O)NCCc1c(-c2ccc(F)cc2)[nH]c2c(F)cc(F)cc12` [Compound 302] belongs above 1000 nM; to `CC(CO)(CO)NC(=O)CCc1c(-c2ccc(F)cc2)[nH]c2c(F)cc(Cl)cc12` [Compound 197], 250 to 1000 nM; to `O=C(Cc1nccs1)NCCc1c(-c2ccc(F)cc2)[nH]c2c(F)cc(F)cc12` [Compound 376], above 1000 nM.
With `O=C(NCc1ccco1)OCCc1c(-c2ccc(F)cc2)[nH]c2c(F)cc(F)cc12` [Compound 481], the IC50 is above 1000 nM.
Turning to `N#CC(NC(=O)OCCc1c(-c2ccc(F)cc2)[nH]c2c(F)cc(F)cc12)C(N)=O` (stereo not shown) [Compound 456], the IC50 was in the range of 250 to 1000 nM.
Regarding `O=C(NCCc1c(-c2ccc(F)cc2)[nH]c2c(F)cc(F)cc12)N[C@@H]1CC[C@@H](O)C1` [Compound 273], the IC50 was above 1000 nM.
Take `O=C(CCCc1c(-c2ccc(F)cc2)[nH]c2c(F)cc(F)cc12)N1C[C@@H](O)[C@H](O)C1` [Compound 248]: the IC50 is above 1000 nM.
Take `COC[C@H](C)NC(=O)OCCc1c(-c2ccc(F)cc2)[nH]c2c(F)cc(F)cc12` [Compound 444]: the IC50 was below 250 nM.
As to `O=C(CCc1c(-c2ccc(F)cc2)[nH]c2c(F)cc(Cl)cc12)NCCO` [Compound 199], the IC50 is 250 to 1000 nM.
In the case of `O=S(=O)(NCCc1c(-c2ccc(F)cc2)[nH]c2c(F)cc(F)cc12)C1CCOCC1` [Compound 423], the IC50 was above 1000 nM.
In the case of `O=C(Cn1cncn1)NCCc1c(-c2ccc(F)cc2)[nH]c2c(F)cc(F)cc12` [Compound 386], the IC50 is above 1000 nM.
Turning to `O=C(Cc1cnccn1)NCCc1c(-c2ccc(F)cc2)[nH]c2c(F)cc(F)cc12` [Compound 381], the IC50 was above 1000 nM.
The value for `O=C1CC[C@@H](C(=O)NCCc2c(-c3ccc(F)cc3)[nH]c3c(F)cc(F)cc23)N1` [Compound 338] was above 1000 nM.
Take `Cn1ccc(C(=O)NCCc2c(-c3ccc(F)cc3)[nH]c3c(F)cc(F)cc23)n1` [Compound 390]: the IC50 was above 1000 nM.
Consider `Cc1cnc(CNC(=O)OCCc2c(-c3ccc(F)cc3)[nH]c3c(F)cc(F)cc23)o1` [Compound 487], for which the IC50 was above 1000 nM.
The value for `O=C(Cn1cccc1)NCCc1c(-c2ccc(F)cc2)[nH]c2c(F)cc(F)cc12` [Compound 395] was above 1000 nM.
For `O=C(NCCc1c(-c2ccc(F)cc2)[nH]c2c(F)cc(F)cc12)C(F)F` [Compound 414], the IC50 was above 1000 nM.
For `O=C(NC1CC(F)(F)C1)OCCc1c(-c2ccc(F)cc2)[nH]c2c(F)cc(F)cc12` [Compound 465], the IC50 fell in the range of 250 to 1000 nM.
For the compound `CC(C)(CO)NC(=O)OCCc1c(-c2ccc(F)cc2)[nH]c2c(F)cc(F)cc12` [Compound 435], the concentration for half-maximal inhibition (IC50) is below 250 nM.
With `N#CC(NC(=O)CCc1c(-c2ccc(F)cc2)[nH]c2c(F)cc(F)cc12)C(N)=O` (stereo not shown) [Compound 127], the IC50 lay within 250 to 1000 nM.
The value for `C[C@@H](O)CNC(=O)OCCc1c(-c2ccc(F)cc2)[nH]c2c(F)cc(F)cc12` [Compound 450] was below 250 nM; that for `O=C(NCCc1c(-c2ccc(F)cc2)[nH]c2c(F)cc(F)cc12)NCCS(=O)(=O)O` [Compound 263] was above 1000 nM.
The value for `O=C(NCc1cnco1)OCCc1c(-c2ccc(F)cc2)[nH]c2c(F)cc(F)cc12` [Compound 477] was above 1000 nM; that for `NC(=O)[C@@H](CO)NC(=O)OCCc1c(-c2ccc(F)cc2)[nH]c2c(F)cc(F)cc12` [Compound 447] was below 250 nM.
Take `O=C1CC(C(=O)NCCc2c(-c3ccc(F)cc3)[nH]c3c(F)cc(F)cc23)NC(=O)N1` (stereo not shown) [Compound 309]: the IC50 was above 1000 nM.
`O=C(N[C@H]1C[C@H](O)C1)OCCc1c(-c2ccc(F)cc2)[nH]c2c(F)cc(F)cc12` [Compound 464]: the IC50 lay in the range of 250 to 1000 nM.
For `Cc1cc(F)c2[nH]c(-c3ccc(F)cc3)c(CCC(=O)N[C@@H](C)CO)c2c1` [Compound 222], the IC50 was above 1000 nM.
To `O=C(CO)NCCc1c(-c2ccc(F)cc2)[nH]c2c(F)cc(F)cc12` [Compound 365] belongs above 1000 nM; to `CC(C)(O)C#Cc1c(-c2ccc(F)cc2)[nH]c2c(F)cc(F)cc12` [Compound 523, 4-[5,7-difluoro-2-(4-fluorophenyl)-1H-indol-3-yl]-2-methyl-but-3-yn-2-ol], above 1000 nM.
For the compound `CC(C)(C)OC(=O)NCC(=O)NCCc1c(-c2ccc(F)cc2)[nH]c2c(F)cc(F)cc12` [Compound 317], the IC50 is above 1000 nM.
The value for `O=C(NCCc1c(-c2ccc(F)cc2)[nH]c2c(F)cc(F)cc12)c1cc(C(F)(F)F)n[nH]1` [Compound 315] was above 1000 nM; that for `O=C(NCCc1c(-c2ccc(F)cc2)[nH]c2c(F)cc(F)cc12)NC1(CCO)CC1` [Compound 274] was 250 to 1000 nM; that for `O=C(NCCc1c(-c2ccc(F)cc2)[nH]c2c(F)cc(F)cc12)C(O)C1CC1` (stereo not shown) [Compound 346] was 250 to 1000 nM.
To `O=C(CCCc1c(-c2ccc(F)cc2)[nH]c2c(F)cc(F)cc12)N[C@H]1CCNC1=O` [Compound 249] belongs above 1000 nM.
To `O=C(NC1CCOC1)OCCc1c(-c2ccc(F)cc2)[nH]c2c(F)cc(F)cc12` (stereo not shown) [Compound 463] belongs 250 to 1000 nM; to `O=C(CCc1c(-c2ccc(F)cc2)[nH]c2c(F)cc(Cl)cc12)NC(CO)CO` [Compound 212], 250 to 1000 nM.
With `O=C(N[C@H]1COC[C@@H]1O)OCCc1c(-c2ccc(F)cc2)[nH]c2c(F)cc(F)cc12` [Compound 474], the IC50 lay in the range of 250 to 1000 nM.
To `Cc1cc(F)c2[nH]c(-c3ccc(F)cc3)c(CCC(=O)N[C@@H](CO)C(F)(F)F)c2c1` [Compound 214] belongs below 250 nM; to `Cc1ccc(C(=O)NCCc2c(-c3ccc(F)cc3)[nH]c3c(F)cc(F)cc23)o1` [Compound 393], above 1000 nM; to `NC(=O)CNC(=O)CCc1c(-c2ccc(F)cc2)[nH]c2c(F)cc(Cl)cc12` [Compound 201], above 1000 nM.

One may read the IC50 as the concentration that gives 50% inhibition.
